Marks after values point to notes of the source that are not given here.
Key:
[1] = UV-Vis and fluorescence spectroscopy of free dye or probe in buffer or SDS; assay type: physicochemical; conditions: for Φ / ε^SDS: 0.1% SDS in HEPES buffer (pH 7.3); for ε: HEPES buffer (pH 7.3)
Protocol: UV-Vis and Fluorescence Spectroscopy
Spectroscopy was performed using 96-well plate (Thermo Fisher) with optical bottom. All measurements were taken at ambient temperature (25±2° C.). Absorption and fluorescence spectra were recorded on Spark® microplate reader (Tecan). Maximum absorption wavelength (λabs), and maximum emission wavelength (λem) were taken in 10 mM HEPES, pH 7.3 buffer unless otherwise noted; reported values for ε are averages (n=3). Normalized spectra are shown for clarity.
(§1) SDS (10% in 10 mM HEPES) was added with dilution of 100 folds as a control group. Absorbance and fluorescence measurements were performed in 96-well plate (Thermos Fisher) with optical bottom.

[2] = test system: SNAP-Halo-tag; assay: Increase in absorbance and fluorescence on binding to SNAP-HaloTag protein in vitro; assay type: biochemical; conditions: for Φ / ε^protein / λabs / λem: binding with SNAP-Halo-tag; for F/F0: ± s.e.m.
Protocol: Measurement of Increase in Absorbance and Fluorescence.
SNAP-HaloTag protein were used as a 85 μM-200 μM solution in 75 mM NaCl, 50 mM TRIS-HCl, pH 7.4 with 50% v/v glycerol (TBS-glycerol). SNAPTag and HaloTag based fluorogenic probes were diluted to 1.0-2.0 μM in 10 mM HEPES, pH 7.3. Then an aliquot of SNAPTag/HaloTag protein (1.5-2.0 equiv) was added and the resulting mixture was incubated until consistent absorbance signal was observed (˜60 min).
as §1

[3] = test system: U2OS FlpIn Halo-SNAP-NLS expressing cells; assay: No-wash live-cell confocal imaging, nuclear versus cytosol signal; assay type: cell-based; conditions: for signal and background in no-wash live-cell imaging: no washing; for Fnuc./Fcyt.: average ratio between nuclear signal (U2OS FlpIn Halo-SNAP-NLS expressing cells) and cytosol signal (normal U2OS cell), ± s.e.m.; for intracellular kinetics of labeling relative to control probe: nuclear localized SNAP-tag or HaloTag in U2OS cells
Source text: Self-labeling protein tags such as SNAP-tag and HaloTag are an efficient approach to attach synthetic fluorophores to proteins in living cells. The main challenge when using these tags for live-cell imaging is the low cell permeability of most fluorescent probes used for labeling and high background signal resulting from their unspecific binding. SNAP-tag fusion proteins can be specifically labeled with different fluorophores using appropriate O^6-benzlyguanine derivatives. A 6-TAMRA based probe (150) for SNAP-tag has been previously introduced for live-cell imaging, but its low cell-permeability and lack of fluorogenicity requires the use of high concentrations (5 μM) and repeated washing steps to remove excess and non-specifically bound probe. To address these problem, the inventors coupled fluorophores 132-135 to O^6-benzylguanine to obtain probes 152, 154, 156, and 158. […] The inventors then examined the performance of probes 150, 152, 154, 156, and 158 in live-cell imaging, in which U2OS cells stably expressing a nuclear localized SNAP-Halo fusion protein were co-cultured with regular U2OS cells not expressing any protein tags. […] Furthermore, the kinetics of labeling of nuclear localized SNAP-tag with MaP555-SNAP were much faster than those of control […]. The inventors then prepared the corresponding 6-TAMRA-based probes 151, 153, 155, 157, and 159 for HaloTag. As for SNAP-tag, the probe with the largest enhancement in absorbance (16-fold) and fluorescence intensity (35-fold) in in vitro assays was based on the N,N-dimethylsulfamide derivative 159 (abbreviated as MaP555-Halo in the following). […] The excellent performance of MaP555-SNAP and MaP555-Halo in live-cell imaging experiments support the inventors' assumption that establishing a dynamic equilibrium between the fluorescent zwitterion and the more hydrophobic spirolactam enables the generation of highly cell-permeable and fluorogenic probes for live-cell imaging.
Generation of U2OS FlpIn Halo-SNAP-NLS Cell Lines
The Flp-In™ System (ThermoFisher Scientific) was used to generated U2OS FlpIn Halo-SNAP-NLS expressing cells. pcDNA5-FRT-Halo-SNAP-NLS and pOG44 were co-transfected into the host cell line U2OS FLpIn (Malecki et al. Molecular and Cellular Biology 26, 4642 (2006)). Homologous recombination between the FRT sites in pcDNA5-FRT-Halo-SNAP-NLS and on the host cell chromosome, catalysed by the Flp recombinase expressed from pOG44, produced the U2OS FlpIn Halo-SNAP-NLS stably expressing cells.
Live-Cell Confocal Imaging
U2OS FlpIn Halo-SNAP-NLS expressing cells were grown in 96-well plate (Thermos Fisher) with optical bottom at 37° C. in a humidified 5% (vol/vol) CO2 environment. 50-500 nM probes and 2 μM verapamil were added and incubated for 1 h in DMEM media (Evrogen) containing 10% FBS. The cells were directly used to image without washing. Meanwhile, another group was imaged after being washed 2 times for 5 min with 1× phosphate buffered saline (PBS, pH 7.4) and DMEM supplemented with 10% FBS. Imaging was performed using Leica TCS SP8 confocal microscope. TMR- and Rhodamine B—, and Rhodamine 110-based probes were excited at 540 nm and the fluorescence signal was collected from 560-700 nm. Semi-Rhodamine-based probes were excited at 650 nm and the fluorescence signal was […] from 670-760 nm. Images were processed with Fiji (http://fiji.sc/wiki/index.php/Fiji) to obtain MIP (maximum intensity projections)

[4] = ratio of fluorescence intensities at 580 nm in the presence and absence of SNAP-Halo-tag
[5] = upon binding to SNAP-tag, in vitro
[6] = upon binding to HaloTag, in vitro
[7] = ratio of fluorescence intensities at 635 nm in the presence and absence of SNAP-Halo-tag

Structure (SMILES) | Φ [1] | ε^SDS [1] | ε [1] | Φ [2] | ε^protein [2] | λabs [2] | λem [2] | fluorogenicity on binding to tag or target protein ([2]; in vitro) | F/F0 ([2]; ratio of fluorescence intensities at 720 nm in the presence and absence of SNAP-Halo-tag) | signal and background in no-wash live-cell imaging ([3]; U2OS cells) | Fnuc./Fcyt. [3] | F/F0 [2, 4] | increase in absorbance at 555 nm [2, 5] | increase in intensity of fluorescence emission at 580 nm [2, 5] | nuclei to cytosol signal ratio (Fnuc/Fcyt) ([3]; no-wash live-cell imaging, U2OS cells, 250 nM for MaP555-SNAP and MaP700-Halo) | intracellular kinetics of labeling relative to control probe [3] | increase in absorbance [2, 6] | increase in fluorescence intensity [2, 6] | F/F0 [2, 7]
CN1CCc2cc3c(cc21)[Si](C)(C)c1cc2c(cc1C31OC(=O)c3ccc(C(=O)NCCOCCOCCCCCCCl)cc31)CCN2C [compound 37, reference compound] | 0.25 | 85,000^c M^−1cm^−1 | 38,000 M^−1cm^−1 | 0.27 | 83,000 M^−1cm^−1 | 695 nm | 718 nm | only modest fluorogenicity | 7.5 ± 0.2^e | relatively high background signal | 6.7 ± 1.5^f | – | – | – | – | – | – | – | –
CN(C)c1ccc2c(-c3cc(C(=O)NCc4ccc(COc5nc(N)nc6[nH]cnc56)cc4)ccc3C(=O)[O-])c3ccc(=[N+](C)C)cc-3oc2c1 [compound 150, reference compound] | 0.61 | 82,000 M^−1cm^−1 | 22,000 M^−1cm^−1 | 0.42 | 66,000 M^−1cm^−1 | 555 nm | 578 nm | – | – | barely detectable signal | 1.8 ± 0.1^f | 7.9 ± 0.2^e | – | – | – | – | – | – | –
CN(C)c1ccc2c(-c3cc(C(=O)NCCOCCOCCCCCCCl)ccc3C(=O)O)c3ccc(=[N+](C)C)cc-3oc2c1 [compound 151, reference compound] | 0.68 | 87,000 M^−1cm^−1 | 58,000 M^−1cm^−1 | 0.51 | 82,000 M^−1cm^−1 | 555 nm | 578 nm | – | – | – | 9.4 ± 1.7^f | 1.8 ± 0.1^e | – | – | – | – | – | – | –
CN(C)c1ccc2c(c1)Oc1cc(N(C)C)ccc1C21c2cc(C(=O)NCc3ccc(COc4nc(N)nc5[nH]cnc45)cc3)ccc2C(=O)N1C#N [compound 152] | 0.58 | 82,000 M^−1cm^−1 | 18,000 M^−1cm^−1 | 0.33 | 68,000 M^−1cm^−1 | 558 nm | 580 nm | – | – | – | 8.1 ± 0.9^f | 18 ± 2.6^e | – | – | – | – | – | – | –
CN(C)c1ccc2c(c1)Oc1cc(N(C)C)ccc1C21c2cc(C(=O)NCCOCCOCCCCCCCl)ccc2C(=O)N1C#N [compound 153] | 0.71 | 79,000 M^−1cm^−1 | 15,000 M^−1cm^−1 | 0.46 | 71,000 M^−1cm^−1 | 557 nm | 580 nm | – | – | – | 10 ± 0.4^f | 7.3 ± 0.8^e | – | – | – | – | – | – | –
CN(C)c1ccc2c(c1)Oc1cc(N(C)C)ccc1C21c2cc(C(=O)NCc3ccc(COc4nc(N)nc5[nH]cnc45)cc3)ccc2C(=O)N1S(C)(=O)=O [compound 154] | 0.65 | 86,000 M^−1cm^−1 | 15,000 M^−1cm^−1 | 0.38 | 65,000 M^−1cm^−1 | 558 nm | 580 nm | – | – | – | 7.9 ± 0.9^f | 9.7 ± 0.1^e | – | – | – | – | – | – | –
CN(C)c1ccc2c(c1)Oc1cc(N(C)C)ccc1C21c2cc(C(=O)NCCOCCOCCCCCCCl)ccc2C(=O)N1S(C)(=O)=O [compound 155] | 0.66 | 95,000 M^−1cm^−1 | 40,000 M^−1cm^−1 | 0.56 | 85,000 M^−1cm^−1 | 559 nm | 580 nm | – | – | – | 12 ± 2.6^f | 3.7 ± 0.4^e | – | – | – | – | – | – | –
CN(C)c1ccc2c(c1)Oc1cc(N(C)C)ccc1C21c2cc(C(=O)NCc3ccc(COc4nc(N)nc5[nH]cnc45)cc3)ccc2C(=O)N1S(N)(=O)=O [compound 156] | 0.62 | 89,000 M^−1cm^−1 | 9,800 M^−1cm^−1 | 0.46 | 57,000 M^−1cm^−1 | 557 nm | 578 nm | – | – | – | 9.8 ± 0.8^f | 13 ± 2.4^e | – | – | – | – | – | – | –
CN(C)c1ccc2c(c1)Oc1cc(N(C)C)ccc1C21c2cc(C(=O)NCCOCCOCCCCCCCl)ccc2C(=O)N1S(N)(=O)=O [compound 157] | 0.65 | 91,000 M^−1cm^−1 | 9,600 M^−1cm^−1 | 0.56 | 87,000 M^−1cm^−1 | 558 nm | 580 nm | – | – | – | 14 ± 0.7^f | 19 ± 3.2^e | – | – | – | – | – | – | –
CN(C)c1ccc2c(c1)Oc1cc(N(C)C)ccc1C21c2cc(C(=O)NCc3ccc(COc4nc(N)nc5[nH]cnc45)cc3)ccc2C(=O)N1S(=O)(=O)N(C)C [compound 158] | 0.61 | 88,000 M^−1cm^−1 | 3,500 M^−1cm^−1 | 0.46 | 54,000 M^−1cm^−1 | 556 nm | 576 nm | – | – | – | 15 ± 2.9^f | 21 ± 3.2^e | 15 fold | 21 fold | 15 | much faster | – | – | –
CN(C)c1ccc2c(c1)Oc1cc(N(C)C)ccc1C21c2cc(C(=O)NCCOCCOCCCCCCCl)ccc2C(=O)N1S(=O)(=O)N(C)C [compound 159] | 0.63 | 92,000 M^−1cm^−1 | 5,200 M^−1cm^−1 | 0.54 | 87,000 M^−1cm^−1 | 558 nm | 578 nm | – | – | much lower background signal | 18 ± 2.9^f | 35 ± 2.3^e | – | – | – | about two-fold faster | 16 fold | 35 fold | –
CN(C)c1ccc2c(c1)C(C)(C)c1cc(N(C)C)ccc1C21c2cc(C(=O)NCCOCCOCCCCCCCl)ccc2C(=O)N1C#N [compound 161] | 0.72 | 70,000^c M^−1cm^−1 | 1,500 M^−1cm^−1 | 0.53 | 144,000 M^−1cm^−1 | 618 nm | 635 nm | – | – | – | 19 ± 1.2^f | – | – | – | – | – | – | – | 112 ± 3.8^e
CN(C)c1ccc2c(c1)C(C)(C)c1cc(N(C)C)ccc1C21c2cc(C(=O)NCCOCCOCCCCCCCl)ccc2C(=O)N1S(C)(=O)=O [compound 163] | 0.76 | 45,000^c M^−1cm^−1 | 1,600 M^−1cm^−1 | 0.50 | 121,000 M^−1cm^−1 | 618 nm | 635 nm | – | – | – | 24 ± 1.8^f | – | – | – | – | – | – | – | 179 ± 14^e

From patent publication US12326385B2, “Cell-permeable fluorogenic fluorophores” (MAX-PLANCK-GESELLSCHAFT ZUR FÖRDERUNG DER WISSENSCHAFTEN E. …, priority 2018, dated 2025)
